Tests used:
[1] = target: Mcl-1 protein (UniProtKB primary accession number: Q07820) (Homo sapiens, UniProt Q07820); test: Inhibition of Mcl-1 by fluorescence polarisation, Method 1; assay type: binding; settings: fluorescence polarisation test; Method 2 values are underlined in the patent (underlining not visible here); read-out: IC50 (M) Mcl-1 FP
Outline: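 Compounds were tested as 11-point serial dilutions at 5% final DMSO against 5 nM Mcl-1 with 1 nM fluorescein-labelled ligand in 10 mM HEPES, 150 mM NaCl, 0.05% Tween 20, pH 7.4. Relative binding potency was read by fluorescence polarisation.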

[2] = system: H929 multiple myeloma tumour line; test: In vitro cytotoxicity, Microculture Tetrazolium Assay; assay type: cell-based; settings: Homo sapiens, NCI-H929, 48 h, H929 cells, 48 hours exposure, MTT; read-out: IC50 (μM) MTT H929
Experimental: The cytotoxicity studies were carried out on the H929 multiple myeloma tumour line.
The cells are distributed onto microplates and exposed to the test compounds for 48 hours.

Chain of Mcl-1 protein (Q07820 whole entry): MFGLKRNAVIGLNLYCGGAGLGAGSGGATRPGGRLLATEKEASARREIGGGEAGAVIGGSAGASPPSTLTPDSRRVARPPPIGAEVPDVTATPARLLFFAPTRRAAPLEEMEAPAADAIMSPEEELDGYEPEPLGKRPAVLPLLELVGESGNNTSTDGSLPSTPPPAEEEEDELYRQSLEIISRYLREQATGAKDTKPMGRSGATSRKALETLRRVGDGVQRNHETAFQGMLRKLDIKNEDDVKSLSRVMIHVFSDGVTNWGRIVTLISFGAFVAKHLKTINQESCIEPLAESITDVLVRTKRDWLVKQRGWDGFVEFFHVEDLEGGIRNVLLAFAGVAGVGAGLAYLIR

Compound | IC50 [1] [M] | IC50 [2] [µM]
COc1ccc(Cn2nccc2COc2ccccc2CC(Oc2ncnc3sc(-c4ccc(F)cc4)c(-c4ccc(OCCN5CCN(C)CC5)c(Cl)c4C)c23)C(=O)O)cc1 [Example 79, (2R)-2-{[(5Sa)-5-{3-chloro-2-methyl-4-[2-(4-methylpiperazin-1-yl)ethoxy]phenyl}-6-(4-fluorophenyl)thieno[2,3-d]pyrimidin-4-yl]oxy}-3-(2-{[1-(4-methoxybenzyl)-1H-pyrazol-5-yl]methoxy}phenyl)propanoic acid] | 1.3e-08 | 0.168
CCCn1nccc1COc1ccccc1CC(Oc1ncnc2sc(-c3ccc(F)cc3)c(-c3ccc(OCCN4CCN(C)CC4)c(Cl)c3C)c12)C(=O)O [Example 81, (2R)-2-{[(5Sa)-5-{3-chloro-2-methyl-4-[2-(4-methylpiperazin-1-yl)ethoxy]phenyl}-6-(4-fluorophenyl)thieno[2,3-d]pyrimidin-4-yl]oxy}-3-{2-[(1-propyl-1H-pyrazol-5-yl)methoxy]phenyl}propanoic acid] | 7.6e-09 | 0.034
Cc1c(-c2c(-c3ccc(F)cc3)sc3ncnc(OC(Cc4ccccc4OCc4ccnn4CCN(C)C)C(=O)O)c23)ccc(OCCN2CCN(C)CC2)c1Cl [Example 87, (2R)-2-{[(5Sa)-5-{3-chloro-2-methyl-4-[2-(4-methylpiperazin-1-yl)ethoxy]phenyl}-6-(4-fluorophenyl)thieno[2,3-d]pyrimidin-4-yl]oxy}-3-[2-({1-[2-(dimethylamino)ethyl]-1H-pyrazol-5-yl}methoxy)phenyl]propanoic acid] | 7e-09 | 0.274
Cc1c(-c2c(-c3ccc(F)cc3)sc3ncnc(OC(Cc4ccccc4OCc4cncnc4)C(=O)O)c23)ccc(OCCN2CCN(C)CC2)c1Cl [Example 93, (2R)-2-{[(5Sa)-5-{3-chloro-2-methyl-4-[2-(4-methylpiperazin-1-yl)ethoxy]phenyl}-6-(4-fluorophenyl)thieno[2,3-d]pyrimidin-4-yl]oxy}-3-[2-(pyrimidin-5-ylmethoxy)phenyl]propanoic acid] | 1.4e-08 | 0.087
Cc1c(-c2c(-c3ccc(F)cc3)sc3ncnc(OC(Cc4ccccc4OCc4cocn4)C(=O)O)c23)ccc(OCCN2CCN(C)CC2)c1Cl [Example 98, (2R)-2-{[(5Sa)-5-{3-chloro-2-methyl-4-[2-(4-methylpiperazin-1-yl)ethoxy]phenyl}-6-(4-fluorophenyl)thieno[2,3-d]pyrimidin-4-yl]oxy}-3-[2-(1,3-oxazol-4-ylmethoxy)phenyl]propanoic acid] | 3.3e-07 | 0.118
Cc1c(-c2c(-c3ccc(F)cc3)sc3ncnc(OC(Cc4ccccc4OCc4ncncc4Br)C(=O)O)c23)ccc(OCCN2CCN(C)CC2)c1Cl [Example 101, (2R)-3-{2-[(5-bromopyrimidin-4-yl)methoxy]phenyl}-2-{[(5Sa)-5-{3-chloro-2-methyl-4-[2-(4-methylpiperazin-1-yl)ethoxy]phenyl}-6-(4-fluorophenyl)thieno[2,3-d]pyrimidin-4-yl]oxy}propanoic acid] | 8e-09 | 0.398
Cc1c(-c2c(-c3ccc(F)cc3)sc3ncnc(OC(Cc4ccccc4OCCF)C(=O)O)c23)ccc(OCCN2CCN(C)CC2)c1Cl [Example 103, (2R)-2-{[(5Sa)-5-{3-chloro-2-methyl-4-[2-(4-methylpiperazin-1-yl)ethoxy]phenyl}-6-(4-fluorophenyl)thieno[2,3-d]pyrimidin-4-yl]oxy}-3-[2-(2-fluoroethoxy)phenyl]propanoic acid] | 2.4e-08 | 0.214
COCCOc1ccccc1CC(Oc1ncnc2sc(-c3ccc(F)cc3)c(-c3ccc(OCCN4CCN(C)CC4)c(Cl)c3C)c12)C(=O)O [Example 104, (2R)-2-{[(5Sa)-5-{3-chloro-2-methyl-4-[2-(4-methylpiperazin-1-yl)ethoxy]phenyl}-6-(4-fluorophenyl)thieno[2,3-d]pyrimidin-4-yl]oxy}-3-[2-(2-methoxyethoxy)phenyl]propanoic acid] | 7.5e-09 | 0.386

These reach a lower IC50 [1]. Values come first.

IC50 [1] [M] | Compound | IC50 [2] [µM]
4.5e-09 | Cc1c(-c2c(-c3ccc(F)cc3)sc3ncnc(OC(Cc4ccccc4OCc4ccnn4CC4CCCCC4)C(=O)O)c23)ccc(OCCN2CCN(C)CC2)c1Cl [Example 80, (2R)-2-{[(5Sa)-5-{3-chloro-2-methyl-4-[2-(4-methylpiperazin-1-yl)ethoxy]phenyl}-6-(4-fluorophenyl)thieno[2,3-d]pyrimidin-4-yl]oxy}-3-(2-{[1-(cyclohexylmethyl)-1H-pyrazol-5-yl]methoxy}phenyl)propanoic acid] | 0.035
5.1e-09 | Cc1c(-c2c(-c3ccc(F)cc3)sc3ncnc(OC(Cc4ccccc4OCc4ccnn4CCC(C)C)C(=O)O)c23)ccc(OCCN2CCN(C)CC2)c1Cl [Example 82, (2R)-2-{[(5Sa)-5-{3-chloro-2-methyl-4-[2-(4-methylpiperazin-1-yl)ethoxy]phenyl}-6-(4-fluorophenyl)thieno[2,3-d]pyrimidin-4-yl]oxy}-3-(2-{[1-(3-methylbutyl)-1H-pyrazol-5-yl]methoxy}phenyl)propanoic acid] | 0.078
3.8e-09 | Cc1c(-c2c(-c3ccc(F)cc3)sc3ncnc(OC(Cc4ccccc4OCc4ccnn4CCCC(F)(F)F)C(=O)O)c23)ccc(OCCN2CCN(C)CC2)c1Cl [Example 84, (2R)-2-{[(5Sa)-5-{3-chloro-2-methyl-4-[2-(4-methylpiperazin-1-yl)ethoxy]phenyl}-6-(4-fluorophenyl)thieno[2,3-d]pyrimidin-4-yl]oxy}-3-(2-{[1-(4,4,4-trifluorobutyl)-1H-pyrazol-5-yl]methoxy}phenyl)propanoic acid] | 0.018
3.6e-09 | CCCCCn1nccc1COc1ccccc1CC(Oc1ncnc2sc(-c3ccc(F)cc3)c(-c3ccc(OCCN4CCN(C)CC4)c(Cl)c3C)c12)C(=O)O [Example 85, (2R)-2-{[(5Sa)-5-{3-chloro-2-methyl-4-[2-(4-methylpiperazin-1-yl)ethoxy]phenyl}-6-(4-fluorophenyl)thieno[2,3-d]pyrimidin-4-yl]oxy}-3-{2-[(1-pentyl-1H-pyrazol-5-yl)methoxy]phenyl}propanoic acid] | 0.063
2.9e-09 | COCCCn1nccc1COc1ccccc1CC(Oc1ncnc2sc(-c3ccc(F)cc3)c(-c3ccc(OCCN4CCN(C)CC4)c(Cl)c3C)c12)C(=O)O [Example 86, (2R)-2-{[(5Sa)-5-{3-chloro-2-methyl-4-[2-(4-methylpiperazin-1-yl)ethoxy]phenyl}-6-(4-fluorophenyl)thieno[2,3-d]pyrimidin-4-yl]oxy}-3-(2-{[1-(3-methoxypropyl)-1H-pyrazol-5-yl]methoxy}phenyl)propanoic acid] | 0.063
4.2e-09 | COCCn1nccc1COc1ccccc1CC(Oc1ncnc2sc(-c3ccc(F)cc3)c(-c3ccc(OCCN4CCN(C)CC4)c(Cl)c3C)c12)C(=O)O [Example 88, (2R)-2-{[(5Sa)-5-{3-chloro-2-methyl-4-[2-(4-methylpiperazin-1-yl)ethoxy]phenyl}-6-(4-fluorophenyl)thieno[2,3-d]pyrimidin-4-yl]oxy}-3-(2-{[1-(2-methoxyethyl)-1H-pyrazol-5-yl]methoxy}phenyl)propanoic acid] | 0.062
6.5e-09 | CCOCCn1nccc1COc1ccccc1CC(Oc1ncnc2sc(-c3ccc(F)cc3)c(-c3ccc(OCCN4CCN(C)CC4)c(Cl)c3C)c12)C(=O)O [Example 89, (2R)-2-{[(5Sa)-5-{3-chloro-2-methyl-4-[2-(4-methylpiperazin-1-yl)ethoxy]phenyl}-6-(4-fluorophenyl)thieno[2,3-d]pyrimidin-4-yl]oxy}-3-(2-{[1-(2-ethoxyethyl)-1H-pyrazol-5-yl]methoxy}phenyl)propanoic acid] | 0.027
3.2e-09 | COCCOCCn1nccc1COc1ccccc1CC(Oc1ncnc2sc(-c3ccc(F)cc3)c(-c3ccc(OCCN4CCN(C)CC4)c(Cl)c3C)c12)C(=O)O [Example 90, (2R)-2-{[(5Sa)-5-{3-chloro-2-methyl-4-[2-(4-methylpiperazin-1-yl)ethoxy]phenyl}-6-(4-fluorophenyl)thieno[2,3-d]pyrimidin-4-yl]oxy}-3-[2-({1-[2-(2-methoxyethoxy)ethyl]-1H-pyrazol-5-yl}methoxy)phenyl]propanoic acid] | 0.058
1.9e-09 | Cc1c(-c2c(-c3ccc(F)cc3)sc3ncnc(OC(Cc4ccccc4OCc4cnnn4-c4ccccc4)C(=O)O)c23)ccc(OCCN2CCN(C)CC2)c1Cl [Example 94, (2R)-2-{[(5Sa)-5-{3-chloro-2-methyl-4-[2-(4-methylpiperazin-1-yl)ethoxy]phenyl}-6-(4-fluorophenyl)thieno[2,3-d]pyrimidin-4-yl]oxy}-3-{2-[(1-phenyl-1H-1,2,3-triazol-5-yl)methoxy]phenyl}propanoic acid] | 0.085
3.8e-09 | COCCCn1nncc1COc1ccccc1CC(Oc1ncnc2sc(-c3ccc(F)cc3)c(-c3ccc(OCCN4CCN(C)CC4)c(Cl)c3C)c12)C(=O)O [Example 96, (2R)-2-{[(5Sa)-5-{3-chloro-2-methyl-4-[2-(4-methylpiperazin-1-yl)ethoxy]phenyl}-6-(4-fluorophenyl)thieno[2,3-d]pyrimidin-4-yl]oxy}-3-(2-{[1-(3-methoxypropyl)-1H-1,2,3-triazol-5-yl]methoxy}phenyl)propanoic acid] | 0.034
3.3e-09 | COCCn1nncc1COc1ccccc1CC(Oc1ncnc2sc(-c3ccc(F)cc3)c(-c3ccc(OCCN4CCN(C)CC4)c(Cl)c3C)c12)C(=O)O [Example 97, (2R)-2-{[(5Sa)-5-{3-chloro-2-methyl-4-[2-(4-methylpiperazin-1-yl)ethoxy]phenyl}-6-(4-fluorophenyl)thieno[2,3-d]pyrimidin-4-yl]oxy}-3-(2-{[1-(2-methoxyethyl)-1H-1,2,3-triazol-5-yl]methoxy}phenyl)propanoic acid] | 0.075

Source: patent US9670227B2, “Thienopyrimidine derivatives, a process for their preparation and pharmaceutical compositions containing them” (LES LABORATOIRES SERVIER, priority 2013, dated 2017)
